The test system of one assay is LBAM. The assay can be described thus: Example 1B: individual compounds as attractants, baited traps. It counts as in vivo, Epiphyas postvittana. As to conditions: tested individually, 10 mg (acetic acid 0.3 mL); no significant differences among treatments. As for the experimental part: (§1) This experiment was conducted from 28 Nov. to 12 Dec. 2013 for LBAM and 3-10 Jun. 2015 for ESBM and OBLR to investigate the biological activity of the individual volatile organic compounds. Lures of benzyl alcohol, benzyl nitrile, indole, 2-phenyethanol, (E)-nerolidol, and 0.3 mL acetic acid were made by dispensing 10 mg of each compound on a Boomerang regular cellulose acetate filter (7.5 mm diameter×10 mm, Moss Packaging Co. Ltd., Wellington, New Zealand) inside a permeable polyethylene bag (100 μm wall thickness, 20 mm×20 mm, Masterton, New Zealand) that was then heat-sealed. A trap with a lure without chemical was used as negative control.

Assay [1] has as its system OBLR. The assay is described as above. It counts as in vivo, Choristoneura rosaceana. As to conditions: tested individually, 10 mg. As for the experimental part:
as §1

For assay [2], the system named is ESBM. The assay can be described thus: Example 5: binary and ternary blends, baited traps. It counts as in vivo, Spilonota ocellana. To be noted: 100 mg 2-phenylethanol added to 100 mg benzyl nitrile and 3 mL acetic acid. As to the method:
(§2) This trial was conducted in a mixed variety apple orchard in Summerland, British Columbia, Canada from 28 Jul. to 11 Aug. 2014 targeting ESBM and threelined leaf rollers (TLLR). […] White delta traps (Trece Inc) were used.

A further assay has as its system TLLR. The assay can be described thus: Example 5: binary and ternary blends, baited traps. To be noted: 100 mg 2-phenylethanol added to 100 mg benzyl nitrile and 3 mL acetic acid. It counts as in vivo, Pandemis limtata. As to the method: as §2
The test system of another assay is Lepidopterous insects. The assay can be described thus: Summary of field attractant trials (description). It counts as in vivo. To be noted: other compounds released by infested apple seedlings; results were inconsistent. As to the method: In the trials described in the Examples, the compounds of formula I were placed inside a permeable polyethylene bag. The acetic acid was applied to a cotton ball inside a 5 ml polyethylene vial containing a 1 mm hole. The bag and vial were placed in the centre of a sticky trap.

For assay [3], the system named is ESBM. Description: Example 1B: individual compounds as attractants, baited traps. It counts as in vivo, Spilonota ocellana. As to conditions: tested individually, 10 mg (acetic acid 0.3 mL); no significant differences among treatments. As to the method:
as §1

Assay [4] has as its system ESBM. As for the experimental part:
(§3) The variance of mean captures obtained with each compound or each blend of compounds was stabilized using the √(x+1) transformation of counts and the significance of treatment effects tested using ANOVA.
(§4) This experiment was conducted between the 11th to the 22 Jul. 2014 in a mixed variety organic apple orchard in Summerland, British Columbia, Canada. Large white delta traps (Trece Inc) were used. The loadings of blends were as follow: 1) 100 mg benzyl nitrile and 3 mL acetic acid; 2) 100 mg of 2-phenyethanol and 3 mL acetic acid; 3) 100 mg benzyl alcohol and 3 mL acetic acid. Traps baited with 3 mL of acetic acid was used to quantify the role of acetic acid. A trap with a blank lure was used as negative control. Traps were baited with the compound of formula I and placed in 5 rows, with five replicates of each treatment in a randomized block design. Traps were positioned 1.5 m above the ground in each trap tree, and were spaced 20 m apart in each row. Each treatment was assigned randomly to a trap tree within each row of trees. The polythene sachet and the acetic acid vial were attached to the side of the traps using Velcro tape. Sticky bases were checked weekly during the experimental period.
(§5) This experiment was conducted between 3 Jul. to 17 Jul. 2014 in a mixed variety organic apple orchard in Summerland, British Columbia, Canada using the same experimental protocol as Example 4. The trial targeted both ESBM and OBLR. The relative attractiveness of the following treatments was investigated: 1) 100 mg benzyl nitrile alone; 2) 3 mL acetic acid alone; and 3) 100 mg of benzyl nitrile and 3 mL acetic acid. A trap with a blank lure was used as negative control.

Assay [5] has as its system OBLR. As to the method:
as §3, §4, §5

Assay [6] concerns ESBM. As to conditions: for numbers of ESBM males and females attracted, each alone, compared with each other: 10 mg benzyl nitrile alone, 0.3 mL acetic acid alone. As for the experimental part: as §3
(§6) This experiment was conducted from 21 Jun. to 2 Jul. 2015 only for ESBM and OBLR in a mixed varieties apple orchard in Summerland, British Columbia, Canada (49°34′50.02″N, 119°38′16.57″W). The relative attractiveness of the following treatments was investigated: 1) 10 mg benzyl nitrile alone; 2) 0.3 mL acetic acid alone; and 3) 10 mg benzyl nitrile+0.3 mL acetic acid. A trap with a blank lure was used as negative control.

Assay [7] concerns OBLR. As to conditions: for numbers of OBLR males and females attracted, each alone, compared with each other: 10 mg benzyl nitrile alone, 0.3 mL acetic acid alone. As for the experimental part:
as §3, §6

Assay [8] deals with ESBM. Description: Example 7A: various doses of benzyl nitrile with constant acetic acid, baited traps. It counts as in vivo, Spilonota ocellana. As for the experimental part: Large white delta traps (Trece Inc) were used. […] Sticky bases were checked weekly during the experimental period.
This experiment was conducted between 8 Jul. to 22 Jul. […] This trial targeted ESBM. The relative attractiveness of three binary blends containing constant amount of acetic acid (3 mL) plus varying amounts of benzyl nitrile (1, 10, and 100 mg) was investigated. […] Experimental protocol was similar to Example 4.

[9] abbreviates: 100 mg benzyl nitrile added to 3 mL acetic acid.
The mark [10] stands for this setting: 10 mg benzyl nitrile added to 0.3 mL acetic acid, P<0.05.
Setting [11] is: binary blend containing 1 mg benzyl nitrile, 3 mL acetic acid.
[12] abbreviates: binary blend with constant 3 mL acetic acid.

Molecules are shown by their SMILES.

As to `OCCc1ccccc1` [2-phenylethanol], in the assay with LBAM, the “attraction of adult LBAM into traps” value is “attracted males and females into the traps”. For the same compound, the “attraction of OBLR into traps” value with OBLR [1] was “attracted males and females”. In addition, in the assay with ESBM [2], the “change in number of ESBM males and females on addition to binary blend benzyl nitrile/acetic acid” value was “did not result in significant increase”. For the same compound, in the assay with TLLR, the “change in number of TLLR males and females on addition to binary blend benzyl nitrile/acetic acid” value is “did not result in significant increase”.

For `C=CC(C)(O)CC/C=C(\C)CCC=C(C)C` (centres unmarked) [(E)-nerolidol], in the assay with Lepidopterous insects, the “attractant activity against some insects” value is recorded as “some attractant activity”.

Turning to `CC(=O)O` [acetic acid], the “attraction of adult LBAM into traps” value in the assay with LBAM is “attracted males and females into the traps”. Also, the “attraction of ESBM into traps” value in the assay with ESBM [3] was “attracted males and females into the traps”. Also, the “ESBM males and females attracted, compared with traps baited with benzyl nitrile alone” value in the assay on ESBM [4] (3 mL acetic acid alone) is “significantly attracted more males and females”. Moreover, in the assay on OBLR [5] (3 mL acetic acid alone), the “OBLR males and females attracted, compared with traps baited with benzyl nitrile alone” value is “significantly attracted more males and females”. The “numbers of ESBM males and females attracted, each alone, compared with each other” value in the assay on ESBM [6] is on record as “attracted similar numbers”. Further, in the assay on OBLR [7], the “numbers of OBLR males and females attracted, each alone, compared with each other” value is “attracted similar numbers”.

Turning to `OCc1ccccc1` [benzyl alcohol], the “attraction of adult LBAM into traps” value with LBAM was “attracted males and females into the traps”.

Consider `N#CCc1ccccc1` [benzyl nitrile], for which the “attraction of adult LBAM into traps” value with LBAM was “attracted males and females into the traps”. Moreover, the “attraction of ESBM into traps” value in the assay on ESBM [3] is “attracted males and females into the traps”. For the same compound, in the assay on ESBM [4] (setting [9]), the “fold increase in number of ESBM females caught on addition to acetic acid” value amounted to 3 fold and the “fold increase in number of ESBM males caught on addition to acetic acid” value is reported as 4 fold. Moreover, the “attractiveness to adults ESBM, compound alone” value in the assay on ESBM [4] (100 mg benzyl nitrile alone) is “not attractive”. Also, in the assay on OBLR [5] (setting [9]), the “fold increase in number of OBLR females caught on addition to acetic acid” value was found to be 9 fold and the “fold increase in number of OBLR males caught on addition to acetic acid” value amounted to 2 fold. Besides, the “attractiveness to adults OBLR, compound alone” value with OBLR [5] (100 mg benzyl nitrile alone) was “not attractive”. The “change in number of ESBM males and females caught on addition to acetic acid” value in the assay with ESBM [6] (setting [10]) is recorded as “significant increases”. The “numbers of ESBM males and females attracted, each alone, compared with each other” value in the assay on ESBM [6] was “attracted similar numbers”. Besides, the “change in number of OBLR males and females caught on addition to acetic acid” value in the assay on OBLR [7] (setting [10]) was “significant increases”. Further, the “numbers of OBLR males and females attracted, each alone, compared with each other” value with OBLR [7] is “attracted similar numbers”. In the assay with ESBM [8] (setting [11]), the “ESBM females attracted compared with acetic acid alone” value was “significantly more females” and the “response of ESBM males compared with acetic acid alone” value was “not significant”. In the assay with ESBM [8] (setting [12]), the “change in number of ESBM males and females caught on increasing dose from 1 mg to 10 mg” value is recorded as “significant increase”; the “change in number of ESBM males and females caught on increasing dose from 10 mg to 100 mg” value is recorded as “did not result in a significant increase”.

Turning to `c1ccc2[nH]ccc2c1` [indole], the “attractant activity against some insects” value in the assay on Lepidopterous insects is on record as “some attractant activity”.

The values are drawn from US20180168151A1, “COMPOSITION AND SYSTEM FOR ATTRACTING LEPIDOPTEROUS INSECTS” (The New Zealand Institute for Plant and Food Research …, priority 2015, published 2018).
